Values quoted from earlier work in patent publication US20130267526A1, “HETEROCYCLIC COMPOUNDS AND THEIR USES” (Amgen, Inc., priority 2010, published 2013).

How the values were obtained:
[1] = test system: mouse model of rheumatoid arthritis; settings: in vivo
[2] = test system: model of systemic lupus erythematosis; settings: in vivo
p110δ = molecular target: T1, p110δ (Homo sapiens, UniProt O00329)
T1 sequence (O00329 1-1044): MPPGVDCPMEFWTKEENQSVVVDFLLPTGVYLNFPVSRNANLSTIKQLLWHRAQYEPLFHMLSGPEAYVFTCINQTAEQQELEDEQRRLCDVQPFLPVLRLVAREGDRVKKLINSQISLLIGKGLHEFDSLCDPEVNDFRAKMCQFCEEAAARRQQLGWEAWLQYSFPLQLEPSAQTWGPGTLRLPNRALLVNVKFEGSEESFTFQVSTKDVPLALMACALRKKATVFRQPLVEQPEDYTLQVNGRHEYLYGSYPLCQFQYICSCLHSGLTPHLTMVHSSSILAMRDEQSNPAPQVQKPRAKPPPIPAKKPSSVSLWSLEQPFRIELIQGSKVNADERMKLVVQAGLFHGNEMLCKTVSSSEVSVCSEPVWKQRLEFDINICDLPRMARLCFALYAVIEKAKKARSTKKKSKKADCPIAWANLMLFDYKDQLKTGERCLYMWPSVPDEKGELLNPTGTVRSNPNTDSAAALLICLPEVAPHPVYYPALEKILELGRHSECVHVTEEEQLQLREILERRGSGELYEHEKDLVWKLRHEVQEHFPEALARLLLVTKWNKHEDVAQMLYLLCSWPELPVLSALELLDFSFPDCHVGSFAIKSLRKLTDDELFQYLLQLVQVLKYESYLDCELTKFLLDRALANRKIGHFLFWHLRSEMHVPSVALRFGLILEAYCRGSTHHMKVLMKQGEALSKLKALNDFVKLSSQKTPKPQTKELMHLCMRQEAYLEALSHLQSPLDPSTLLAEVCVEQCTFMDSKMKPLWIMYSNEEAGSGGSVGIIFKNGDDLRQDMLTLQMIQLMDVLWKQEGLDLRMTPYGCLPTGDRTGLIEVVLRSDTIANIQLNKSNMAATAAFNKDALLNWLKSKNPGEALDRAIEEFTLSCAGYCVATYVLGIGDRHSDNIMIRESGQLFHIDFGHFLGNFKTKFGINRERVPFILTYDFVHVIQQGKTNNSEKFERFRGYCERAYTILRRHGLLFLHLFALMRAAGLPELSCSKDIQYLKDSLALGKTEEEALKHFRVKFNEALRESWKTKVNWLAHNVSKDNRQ

[3] = test system: passive cutaneous anaphylaxis (PCA); settings: absence of functional delta (IC 87114 and p110δ D910A mice)
[4] = test system: ovalbumin-induced airway inflammation

Row | Structure (SMILES) | efficacy in a mouse model of rheumatoid arthritis [1] | onset of disease in a model of systemic lupus erythematosis [2] | inhibition of p110δ (p110δ) | activity against any protein kinases tested (protein kinases) | passive cutaneous anaphylaxis (PCA) [3] | inflammation and disease in murine asthma model [4]
1 | O=C1NC(=O)/C(=C\c2ccc3nccnc3c2)S1 [AS 605240] | efficacious | delay onset of disease |  |  |  | 
2 | Cc1ccccc1-n1c(Cn2cnc3c(N)ncnc32)nc2cccc(C)c2c1=O [IC87114] |  |  | high nanomolar range (triple digit) | no activity | significantly reduced | significantly ameliorate
